Experiments:
[1] = tested on: SW480 xenograft tumor; assay: Xenograft tumor growth in nude mice; format: in vivo, mouse; settings: 10 μg rhHMGB1 daily intraperitoneal for 2 weeks
Procedure: For animal studies six-week-old female and male athymic CD1 nude mice (Charles River, n=40) were injected subcutaneously with 5×10^6 SW480 or HT29 cells in 100 μl PBS in the right flank using a 30-gauge needle. Treatment was started when tumors were palpable. Daily intraperitoneal injections at the contralateral side for 2 weeks were done with 10 μg rhHMGB1 in 500 μl PBS or PBS only (control group) and/or 12.5 mg/kg/injection L-DON (Ovejera, A. A., Houchens, D. P., Catane, R., Sheridan, M. A. & Muggia, F. M. Efficacy of 6-diazo-5-oxo-L-norleucine and N-[N-gamma-glutamyl-6-diazo-5-oxo-norleucinyl]-6-diazo-5-oxo-norleucine against experimental tumors in conventional and nude mice. Cancer research 39, 3220-3224 (1979).). Tumor volume was measured by a calliper using the ellipsoid formula (length×width×height×½) as described (Tomayko, M. M. & Reynolds, C. P. Determination of subcutaneous tumor size in athymic (nude) mice. Cancer Chemother Pharmacol 24, 148-154 (1989).). After 2 weeks of treatment the animals were sacrificed.

[2] = tested on: glucose-6-phosphate; assay: Glucose-6-phosphate assay kit; format: cell-based, human; settings: HMGB1-treated cells
Procedure: Glucose-6-phosphate levels in cells were measured using the Glucose-6-phosphate assay kit (Sigma) according to the manufacturer's protocol.

[3] = tested on: HCT116 colorectal cancer cells; assay: Crystal violet cytotoxicity assay; format: cell-based; settings: 72 h
Procedure: (§1) Human colon carcinoma cell lines SW480, HCT116, HT29 and Caco2, the human glioblastoma cell line U251MG and the Natural killer cell line NK-92 Cl were purchased from ATCC. Cell lines were regularly tested for contamination by multiplex PCR performed in the Genomics and Proteomics Core Facility 2 (DKFZ, Heidelberg, Germany). For experiments, cells were cultured for no more than 10 passages. Rho zero cells were generated as described earlier 1. (Gdynia, G. et al. Danger signaling protein HMGB1 induces a distinct form of cell death accompanied by formation of giant mitochondria. Cancer research 70, 8558-8568). Cells used in the experiments were cultured in RPMI (#1640, colon carcinomas, NK cells) or DMEM high glucose (#41965-039, glioblastoma cells) medium. Rho zero cells were generated as described earlier (Gdynia, G. et al. ibd.). Briefly, cells were cultured in RPMI medium (10% FCS, 1% P/S) supplemented with 250 ng/ml ethidiumbromide, 50 μg/ml L-pyruvate and 5 mg/ml uridine over a period of 12 weeks. For cytotoxicity measurements, cells were cultured in 96-well plates, treated with recombinant human HMGB1 protein (Sigma-Aldrich®), glycyrrhizinic acid ((3β, 18α)-30-hydroxy-11, 30-dioxoolean-12-en-3-yl 2-O-β-D-glucopyranuronosyl-β-D-glucopyranosiduronic acid)) (Sigma-Aldrich®), 10 μM (non-toxic) or 100 μM (cytotoxic) P-M2tide (aa sequence: GGAVDDDpYAQFANGG; #BML-P239-0001; Enzo Life Sciences) or 100 μM ML-265 (Cayman Chemical), then cell viability was assessed by crystal violet staining (Gillies, R. J., Didier, N. & Denton, M. Determination of cell number in monolayer cultures. Analytical biochemistry 159, 109-113 (1986)). Malic enzyme 1 knock-down was performed with 40 nM siRNA using lipofectamine in 6-well plates followed by treatment with 80 nM HMGB1 for 72 h. Sequences of siRNA were: ME1, 5′-[…]-3′ and scrambled control 5′-CCUGCAGUACUUCAAGCGGtt-3′. PKM2 siRNA was from Santa Cruz. A nonspecific siRNA served as control (Dharmacon, Schwerte, Germany). For overexpression of PKM2 or ME1, cells were transfected with pCMV-PKM2 (Sino Biological Inc., Beijing, China) or pCMV-ME1 (OriGene, Rockville, Md., USA) using Lipofectamine 2000. For cytotoxicity measurements confluent cells were cultured in 96-well plates if not otherwise indicated. Cytotoxic activity of supernatants from stimulated NK cells was assessed in 96-well plates for 3 days with RPMI medium as reference. Recombinant human HMGB1 (10 ng, Sigma) suited as positive control. For mass isotopomer assays, cells were cultured in glucose- or glutamine-free medium supplemented with either uniformly labeled (U)-13C-D-glucose or U-13C-glutamine (Sigma-Aldrich®).

[4] = tested on: SW480 colorectal cancer cells; assay: Crystal violet cytotoxicity assay; format: cell-based; settings: 72 h
Procedure: as §1

[5] = tested on: HT29 cells; assay: Crystal violet cytotoxicity assay; format: cell-based
Procedure: as §1

[6] = tested on: HT29 cells; assay: Production of labeled CO2 (glucose and glutamine oxidation); format: cell-based, human; settings: HT29 cells after HMGB1 treatment
[7] = tested on: glucose flux (glycolysis); assay: Glycolysis: conversion of 5-3H-Glucose to 3H2O; format: cell-based, human; settings: HMGB1 80 nM, 24 h
Procedure: Lactate derived from the metabolism of ^13C6-D-glucose or ^13C5-glutamine was determined by comparing the CH3 group intensities of labeled and non-labeled lactate in NMR. Mitochondrial respiration was measured using an Oroboros 1 oxygraph system. Glycolysis was measured by monitoring the conversion of 5-^3H-Glucose to ^3H2O. Incorporation of ^14C into RNA ribose from U-^14C-labelled glucose was taken as glucose utilization in the pentose phosphate shunt. Enzymatic activities were determined in subcellular fractions as previously described^24.

[8] = NK cell derived HMGB1 approx. 16 nM, recombinant human HMGB1 80 nM

Substance: HMGB1: recombinant human HMGB1 protein (Sigma-Aldrich); High Mobility Group Box 1 polypeptide, human, SEQ ID NO: 4
- xenograft tumor growth [1]: inhibited
- glucose-6-phosphate level [2]: strong increase
- cell death (cytotoxicity) [3, 8]: efficiently killed
- sensitivity of respiratory chain deficient (ρ0) cells to HMGB1 ([3]; ρ0 HCT116, HMGB1 160 nM): almost completely resistant
- cell death (cytotoxicity) [4, 8]: efficiently killed
- sensitivity of respiratory chain deficient (ρ0) cells to HMGB1 ([4]; ρ0 SW480, HMGB1 160 nM): almost completely resistant
- sensitivity of cells to HMGB1 ([5]; low to intermediate HMGB1 concentrations (16 to 80 nM)): resistant
- sensitivity towards HMGB1 cytotoxicity after down-regulation of ME1 ([5]; siRNA knock-down of ME1, HMGB1 80 nM, 72 h): sensitization
- decrease of glucose oxidation [6]: ~50%
- increase of glutamine oxidation [6]: ~35%
- glucose flux (5-3H-glucose turn-over) [7]: reduced at the enolase reaction step
